Test results reported in patent US12077503B2, “Substituted cyclic amides and their use as herbicides” (FMC CORPORATION, priority 2015, dated 2024).

How the values were obtained:
[1] = test system: Galium (catchweed bedstraw, Galium aparine); experiment: Test C preemergence; format: in vivo; conditions: for Plant response rating, Galium: scale 0 to 100, 0 no effect, 100 complete control
Outline: (§1)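 Visual 0 (no effect) to 100 (complete control) ratings versus controls, taken 13–15 d after treatment in the greenhouse; dash means no result. Compounds in a surfactant-containing non-phytotoxic solvent blend were applied preemergence to seeds in loam-sand soil or postemergence to 1- to 4-leaf plants (2–18 cm) in peat-based medium.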

[2] = test system: barnyardgrass (Echinochloa crus-galli); experiment: Test C preemergence; format: in vivo; conditions: for Plant response rating, Barnyardgrass: scale 0 to 100, 0 no effect, 100 complete control
Outline: as §1

[3] = test system: blackgrass (Alopecurus myosuroides); experiment: Test C preemergence; format: in vivo; conditions: for Plant response rating, Blackgrass: scale 0 to 100, 0 no effect, 100 complete control
Outline: as §1

corn (Zea mays) = experiment: Test C preemergence; format: in vivo; conditions: for Plant response rating, Corn: scale 0 to 100, 0 no effect, 100 complete control
Outline: as §1

[4] = test system: crabgrass, large (large crabgrass, Digitaria sanguinalis); experiment: Test C preemergence; format: in vivo; conditions: for Plant response rating, Crabgrass, Large: scale 0 to 100, 0 no effect, 100 complete control
Outline: as §1

[5] = test system: foxtail, giant (giant foxtail, Setaria faberii); experiment: Test C preemergence; format: in vivo; conditions: for Plant response rating, Foxtail, Giant: scale 0 to 100, 0 no effect, 100 complete control
Outline: as §1

[6] = test system: johnsongrass (Sorghum halepense); experiment: Test C preemergence; format: in vivo; conditions: for Plant response rating, Johnsongrass: scale 0 to 100, 0 no effect, 100 complete control
Outline: as §1

[7] = test system: lambsquarters (Chenopodium album); experiment: Test C preemergence; format: in vivo; conditions: for Plant response rating, Lambsquarters: scale 0 to 100, 0 no effect, 100 complete control
Outline: as §1

[8] = test system: morningglory (Ipomoea coccinea); experiment: Test C preemergence; format: in vivo; conditions: for Plant response rating, Morningglory: scale 0 to 100, 0 no effect, 100 complete control
Outline: as §1

[9] = test system: nutsedge, yellow (yellow nutsedge, Cyperus esculentus); experiment: Test C preemergence; format: in vivo; conditions: for Plant response rating, Nutsedge, Yellow: scale 0 to 100, 0 no effect, 100 complete control
Outline: as §1

[10] = test system: oilseed rape (Brassica napus); experiment: Test C preemergence; format: in vivo; conditions: for Plant response rating, Oilseed Rape: scale 0 to 100, 0 no effect, 100 complete control
Outline: as §1

[11] = test system: pigweed (Amaranthus retroflexus); experiment: Test C preemergence; format: in vivo; conditions: for Plant response rating, Pigweed: scale 0 to 100, 0 no effect, 100 complete control
Outline: as §1

[12] = test system: ragweed (common ragweed, Ambrosia elatior); experiment: Test C preemergence; format: in vivo; conditions: for Plant response rating, Ragweed: scale 0 to 100, 0 no effect, 100 complete control
Outline: as §1

[13] = test system: ryegrass, Italian (Italian ryegrass, Lolium multiflorum); experiment: Test C preemergence; format: in vivo; conditions: for Plant response rating, Ryegrass, Italian: scale 0 to 100, 0 no effect, 100 complete control
Outline: as §1

soybean (Glycine max) = experiment: Test C preemergence; format: in vivo; conditions: for Plant response rating, Soybean: scale 0 to 100, 0 no effect, 100 complete control
Outline: as §1

[14] = test system: velvetleaf (Abutilon theophrasti); experiment: Test C preemergence; format: in vivo; conditions: for Plant response rating, Velvetleaf: scale 0 to 100, 0 no effect, 100 complete control
Outline: as §1

[15] = test system: waterhemp (common waterhemp, Amaranthus rudis); experiment: Test C preemergence; format: in vivo; conditions: for Plant response rating, Waterhemp: scale 0 to 100, 0 no effect, 100 complete control
Outline: as §1

[16] = test system: wheat (winter wheat, Triticum aestivum); experiment: Test C preemergence; format: in vivo; conditions: for Plant response rating, Wheat: scale 0 to 100, 0 no effect, 100 complete control
Outline: as §1

[17] = test system: sedge, umbrella (small-flower umbrella sedge, Cyperus difformis); experiment: Test C flooded paddy test; format: in vivo; conditions: Flood; for Plant response rating (scale of 0 to 100), Sedge, Umbrella: 0 is no effect, 100 is complete control
Outline: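 Scores express visual response relative to untreated controls, 0 meaning no effect and 100 complete control, assessed 13 to 15 d after treatment in the greenhouse. Compound went into water flooded 3 cm above soil around 2-leaf plants.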

[18] = 31 g ai/ha, 0 is no effect, 100 is complete control

SMILES: COc1ccc([C@H]2CN(C)C(=O)[C@@H]2C(=O)Nc2cccc(F)c2F)cc1 [Compound 1343]
- melting point: 130 to 134 °C

SMILES: COc1ccc([C@H]2CNC(=O)[C@@H]2C(=O)Nc2cccc(F)c2F)cc1 [Compound 1341]
- melting point: 187 to 191 °C

SMILES: C=C(C)c1ccc([C@H]2CN(C)C(=O)[C@@H]2C(=O)Nc2cccc(F)c2F)cc1 [Compound 1149]
- melting point: 126 to 130 °C

SMILES: O=C1NC[C@H](c2cc(Br)cc(Br)c2)[C@H]1C(=O)Nc1cccc(F)c1F [Compound 1366]
- melting point: 81 to 85 °C

SMILES: COc1cccc([C@H]2CN(C)C(=O)[C@@H]2C(=O)Nc2cccc(F)c2F)c1F [Compound 1072]
- melting point: 163 to 167 °C

SMILES: C=C(C)c1cccc([C@H]2CN(C)C(=O)[C@@H]2C(=O)Nc2cccc(F)c2C)c1 [Compound 1086]
- melting point: 89 to 93 °C

SMILES: CN1CC(c2cc(F)cc(F)c2)C(C(=O)Nc2cccc(F)c2F)C1=O (stereo not shown) [Compound 644]
- Plant response rating (scale of 0 to 100), Galium [1, 18]: 10
- Plant response rating, Galium ([1]; 62 g ai/ha): 85
- Plant response rating, Galium ([1]; 125 g ai/ha): 90
- Plant response rating, Galium ([1]; 250 g ai/ha): 98
- Plant response rating (scale of 0 to 100), Barnyardgrass [2, 18]: 90
- Plant response rating, Barnyardgrass ([2]; 62 g ai/ha): 95
- Plant response rating, Barnyardgrass ([2]; 125 g ai/ha): 98
- Plant response rating, Barnyardgrass ([2]; 250 g ai/ha): 98
- Plant response rating (scale of 0 to 100), Blackgrass [3, 18]: 70
- Plant response rating, Blackgrass ([3]; 62 g ai/ha): 70
- Plant response rating, Blackgrass ([3]; 125 g ai/ha): 90
- Plant response rating, Blackgrass ([3]; 250 g ai/ha): 95
- Plant response rating (scale of 0 to 100), Corn (corn (Zea mays); [18]): 30
- Plant response rating, Corn (corn (Zea mays); 62 g ai/ha): 50
- Plant response rating, Corn (corn (Zea mays); 125 g ai/ha): 65
- Plant response rating, Corn (corn (Zea mays); 250 g ai/ha): 85
- Plant response rating (scale of 0 to 100), Crabgrass, Large [4, 18]: 95
- Plant response rating, Crabgrass, Large ([4]; 62 g ai/ha): 95
- Plant response rating, Crabgrass, Large ([4]; 125 g ai/ha): 98
- Plant response rating, Crabgrass, Large ([4]; 250 g ai/ha): 100
- Plant response rating (scale of 0 to 100), Foxtail, Giant [5, 18]: 95
- Plant response rating, Foxtail, Giant ([5]; 62 g ai/ha): 95
- Plant response rating, Foxtail, Giant ([5]; 125 g ai/ha): 98
- Plant response rating, Foxtail, Giant ([5]; 250 g ai/ha): 98
- Plant response rating (scale of 0 to 100), Johnsongrass [6, 18]: 35
- Plant response rating, Johnsongrass ([6]; 62 g ai/ha): 70
- Plant response rating, Johnsongrass ([6]; 125 g ai/ha): 85
- Plant response rating, Johnsongrass ([6]; 250 g ai/ha): 85
- Plant response rating (scale of 0 to 100), Lambsquarters [7, 18]: 50
- Plant response rating, Lambsquarters ([7]; 62 g ai/ha): 75
- Plant response rating, Lambsquarters ([7]; 125 g ai/ha): 85
- Plant response rating, Lambsquarters ([7]; 250 g ai/ha): 85
- Plant response rating (scale of 0 to 100), Morningglory [8, 18]: 0
- Plant response rating, Morningglory ([8]; 62 g ai/ha): 0
- Plant response rating, Morningglory ([8]; 125 g ai/ha): 0
- Plant response rating, Morningglory ([8]; 250 g ai/ha): 0
- Plant response rating (scale of 0 to 100), Nutsedge, Yellow [9, 18]: 0
- Plant response rating, Nutsedge, Yellow ([9]; 62 g ai/ha): 0
- Plant response rating, Nutsedge, Yellow ([9]; 125 g ai/ha): 0
- Plant response rating, Nutsedge, Yellow ([9]; 250 g ai/ha): 15
- Plant response rating (scale of 0 to 100), Oilseed Rape [10, 18]: 0
- Plant response rating, Oilseed Rape ([10]; 62 g ai/ha): 50
- Plant response rating, Oilseed Rape ([10]; 125 g ai/ha): 85
- Plant response rating, Oilseed Rape ([10]; 250 g ai/ha): 90
- Plant response rating (scale of 0 to 100), Pigweed [11, 18]: 0
- Plant response rating, Pigweed ([11]; 62 g ai/ha): 55
- Plant response rating, Pigweed ([11]; 125 g ai/ha): 55
- Plant response rating, Pigweed ([11]; 250 g ai/ha): 70
- Plant response rating (scale of 0 to 100), Ragweed [12, 18]: 25
- Plant response rating, Ragweed ([12]; 62 g ai/ha): 35
- Plant response rating, Ragweed ([12]; 125 g ai/ha): 70
- Plant response rating, Ragweed ([12]; 250 g ai/ha): 85
- Plant response rating (scale of 0 to 100), Ryegrass, Italian [13, 18]: 50
- Plant response rating, Ryegrass, Italian ([13]; 62 g ai/ha): 55
- Plant response rating, Ryegrass, Italian ([13]; 125 g ai/ha): 65
- Plant response rating, Ryegrass, Italian ([13]; 250 g ai/ha): 98
- Plant response rating (scale of 0 to 100), Soybean (soybean (Glycine max); [18]): 10
- Plant response rating, Soybean (soybean (Glycine max); 62 g ai/ha): 10
- Plant response rating, Soybean (soybean (Glycine max); 125 g ai/ha): 0
- Plant response rating (scale of 0 to 100), Velvetleaf [14, 18]: 5
- Plant response rating, Velvetleaf ([14]; 62 g ai/ha): 15
- Plant response rating, Velvetleaf ([14]; 125 g ai/ha): 40
- Plant response rating, Velvetleaf ([14]; 250 g ai/ha): 60
- Plant response rating (scale of 0 to 100), Waterhemp [15, 18]: 10
- Plant response rating, Waterhemp ([15]; 62 g ai/ha): 65
- Plant response rating, Waterhemp ([15]; 125 g ai/ha): 65
- Plant response rating, Waterhemp ([15]; 250 g ai/ha): 80
- Plant response rating (scale of 0 to 100), Wheat [16, 18]: 30
- Plant response rating, Wheat ([16]; 62 g ai/ha): 80
- Plant response rating, Wheat ([16]; 125 g ai/ha): 85
- Plant response rating, Wheat ([16]; 250 g ai/ha): 90
- Plant response rating, Sedge, Umbrella ([17]; 31 g ai/ha, scale 0 to 100 (0 no effect, 100 complete control), 13 to 15 d): 0
- Plant response rating (scale of 0 to 100), Sedge, Umbrella ([17]; 62 g ai/ha): 0
- Plant response rating (scale of 0 to 100), Sedge, Umbrella ([17]; 125 g ai/ha): 0
- Plant response rating (scale of 0 to 100), Sedge, Umbrella ([17]; 250 g ai/ha): 0

SMILES: O=C1NC[C@H](c2ccc(F)c(Oc3ccccc3)c2)[C@H]1C(=O)Nc1cccc(F)c1F [Compound 1258]
- melting point: 123 to 127 °C

SMILES: CN1C[C@H](c2ccc(F)c(Oc3ccccc3)c2)[C@@H](C(=O)Nc2ccccc2S(C)(=O)=O)C1=O [Compound 1143]
- melting point: 141 to 145 °C

SMILES: C=C(C)c1cccc([C@H]2CN(C)C(=O)[C@@H]2C(=O)Nc2cccc(F)c2F)c1 [Compound 1085]
- melting point: 113 to 117 °C

SMILES: CC(C)=CC1CNC(=O)C1C(=O)Nc1cccc(F)c1F (stereo not shown) [Compound 1012]
- melting point: 162 to 166 °C
